From patent US11786534B2 (TAIHO PHARMACEUTICAL CO., LTD., priority 2019, dated 2023)

Experiments:
Type in all cases: biochemical
[1] = molecular target: T1, human EGFR (d746-750/T790M/C797S) (Homo sapiens, UniProt P00533, C797S/DEL746-750/T790M); test: Inhibitory activity against EGFR (d746-750/T790M/C797S) kinase
T1 construct: made in house; host or cells: Sf9 insect cells, baculovirus
Description: 1) Measurement of inhibitory activity against EGFR (d746-750/T790M/C797S) kinase
The compounds of the above examples and comparative examples were measured for their inhibitory activity against EGFR (d746-750/T790M/C797S) kinase activity. Among the materials required for measurement of this inhibitory activity, the kinase protein (SEQ ID NO: 1) used was prepared as follows: the cytoplasmic domain of human EGFR (d746-750/T790M/C797S) fused at the ammo terminal end with a glutathione-S-transferase (GST) tag was expressed M insect cells (Sf9) by the baculovirus expression system and then purified an a glutathione sepharose column. For use as a substrate peptide, a peptide biotinylated at the N-terminal end (biotin -EEPLYWSFPAKKK) was synthesized by reference to Perkin Elmer LabChip® series reagent FL-Peptide 22.
Procedures for measurement of the inhibitory activity are as follows. First, the compounds of the present invention were each dissolved in dimethyl sulfoxide (DMSO), and their serial dilutions were then prepared with DMSO. Secondly, each compound serial dilution (final concentration of DMSO during kinase reaction: 2.5%) or DMSO (final concentration: 2.5%) was mixed with a solution containing the substrate peptide (final concentration: 250 nM), magnesium chloride (final concentration: 10 mM), manganese chloride (final concentration: 10 mM) and ATP (final concentration: 6 μM) in a kinase reaction buffer (Carna Biosciences Inc., Japan), and the EGFR (d746-750/T790M/C797S) protein was further added thereto, followed by incubation at 25° C. for 120 minutes to cause kinase reaction. To the reaction solution, EDTA was added to give a final concentration of 24 mM to thereby stop the reaction, followed by addition of a phospholylated tyrosine detection solution containing europium-labeled anti-phosphorylated tyrosine antibody PT66 (Perkin Elmer) and SureLight APC-SA (Perkin Elmer). The reaction solution was allowed to stand at room temperature for 2 hours or longer. As a background, DMSO was used instead of each compound solution in .DMSO, and EDIA was added prior to the addition of the EGFR EGFR (d746-750/T790M/C797S) protein, followed by incubation at 25° C. for 120 minutes. The same detection solution was also added to this reaction solution, which was then allowed to stand for 2 hours or longer. Finally, all the test samples were measured with a PHERAstar FS reader (BMG LABTECH) for their fluorescence intensity at two wavelengths of 620 nm and 665 nm upon irradiation with an excitation light of 337 nm wavelength, and the ratio of fluorescence intensities at these two wavelengths was obtained as data for each compound.
Moreover, as control compounds, the above Comparative Example A (Example 3 in WO2013/118817) and Comparative Example B (Example 35 in WO2013/118817) known to have EGFR inhibitory activity were used.
In accordance with the same procedures as shown in 1) in Test Example 1, the compounds of the above examples were measured for their inhibitory activity against EGFR (d746-750/T790M/C797S) kinase activity.

[2] = molecular target: T2, human EGFR (L858R/T790M/C797S) (Homo sapiens, UniProt P00533, C797S/L858R/T790M); test: Inhibitory activity against EGFR (L858R/T790M/C797S) kinase
T2 construct: made in house; host or cells: Sf9 insect cells, baculovirus
Description: 2) Measurement of inhibitory activity against EGFR (L858R/T790M/C797S) kinase
The compounds of the presein invention were measured for their inhibitory activity against EGFR (L858R/T790M/C797S) kinase activity.
The materials, measurement procedures and data analysis method used in this test are substantially the same as those shown in the section “Measurement of inhibitory activity against EGFR (d746-750/T790M/C797S) kinase.” However, among the materials, the kinase protein (SEQ ID NO: 2) used was prepared as follows: the cytoplasmic domain of human EGFR (L858R/T790M/C797S) fused at the amino terminal end with a GST tag was expressed in insect cells (Sf9) by the baculovirus expression system and then purified on a glutathione sepharose column. In the measurement procedures, the final concentration of ATP was set to 0.5 μM. Finally, data analysis was conducted to determine the IC50 value (nM) of each compound against EGFR (L858R/T790M/C797S).
In accordance with the same procedures as shown in 2) in Test Example 1, the compounds of the present invention were measured for their inhibitory activity against EGFR (L858R/T790M/C797S) kinase activity.

[3] = molecular target: T3, human EGFR (d746-750/C797S) (Homo sapiens, UniProt P00533, C797S/DEL746-750); test: Inhibitory activity against EGFR (d746-750/C797S) kinase
T3 construct: purchased SignalChem
Description: 3) Measurement of inhibitory activity against EGFR (d746-750/C797S) kinase
The compounds of the present invention were measured for their inhibitory activity against EGFR (d746-750/C797S) kinase activity.
The materials, measurement procedures and data analysis method used in this test are substantially the same as those shown in the section “Measurement of inhibitory activity aiainst EGFR (d746-750/T790M/C797S) kinase.” However, among the materials, the kinase protein used was a purified recombinant human EGFR (d746-750/C797S) protein purchased from SignalChem, while the kinase reaction buffer used was 13.5 mM Tris (pH 7.5) containing 2 mM dithiothreitol and 0.009% Tween-20. In the measurement procedures, the final concentration of ATP was set to 14 μM, the final concentration of maganesium chloride was set to 20 mM, the final concentration of manganese chloride was set to 12.5 mM, the incubation time for kinase reaction was set to 60 minutes, and the final concentration of EDTA used to stop the kinase reaction was set to 40 mM. Finally, data analysis was conducted to determine to IC50 value (nM) of each compound against EGFR (d746-750/C797S).
In accordance with the same procedures as shown in 3) in Test Example 1, the compounds of the present invention were measured for their inhibitory activity against EGFR (d746-750/C797S) kinase activity.

[4] = molecular target: T4, human EGFR (L858R/C797S) (Homo sapiens, UniProt P00533, C797S/L858R); test: Inhibitory activity against EGFR (L858R/C797S) kinase
T4 construct: purchased SignalChem
Description: 4) Measurement of inhibitory activity against EGFR (L858R/C797S) kinase
The compounds of the present invention were measured for their inhibitory activity aeainst EGFR (L858R/C797S) kinase activity.
The materials, measurement procedures and data analysis method used in this test are stibstantially the same as those shown in the section “Measurement of inhibitory activity against EGFR (d746-750/C797S) kinase.” However, among the materials, the kinase protein used was a purified recombinant human EGFR (C797S/L858R) protein purchased from SignalChem. In the measurement procedures, the final concentration of ATP was set to 4 μM, and the incubation time for kinase reaction was set to 90 minutes. Finally, data analysis was conducted determine the IC50 value (nM) of each compound against EGFR (L858R/C797S).
In accordance with the same procedures as shown in 4) in Test Example 1, the compounds of the present invention were measured for their inhibitor activity against. EGFR (L858R/C797S) kinase activity.

[5] = molecular target: T5, human EGFR (WT) (Homo sapiens, UniProt P00533); test: Inhibitory activity against EGFR (WT) kinase
T5 construct: purchased Carna Biosciences Inc., Japan
Description: The compounds of the present invention were measured for their inhibitory activity nainst EGFR (WT) kinase activity.
The materials, measurement procedures and data analysis method used in this test. are substantially the same as those shown in the section “Measurement of inhibitory activity against EGFR (d746-750/T790M/C797S) kinase.” However, among the materials, the kinase protein used was a purified recombinant human EGFR (WT) purchased from Carna Biosciences Inc., Japan. In the measurement procedures, the final concentration of ATP was set to 1.5 μM. Finally, data analysis was conducted to determine the IC50 value (nM) of each compound against EGFR (WT).
In accordance with the same procedures as shown in 5) in Test Example 1, the compounds of the present invention were measured for their inhibitory activity against. EGFR (WT) kinase activity.

[6] = Test Example 3, Table 8; same procedures as 1) in Test Example 1
[7] = Test Example 3, Table 9; same procedures as 2) in Test Example 1
[8] = Test Example 3, Table 10; same procedures as 3) in Test Example 1
[9] = Test Example 3, Table 11; same procedures as 4) in Test Example 1
[10] = Test Example 3, Table 12; same procedures as 5) in Test Example 1
[11] = Test Example 1, Table 2, ATP 6 μM, 25° C., 120 minutes
[12] = Test Example 1, Table 3, ATP 0.5 μM
[13] = Test Example 1, Table 4, ATP 14 μM, 60 minutes
[14] = Test Example 1, Table 5, ATP 4 μM, 90 minutes
[15] = Test Example 1, Table 6, ATP 1.5 μM

Row | IC50 [1, 6] [nM] | IC50 [2, 7] [nM] | IC50 [3, 8] [nM] | IC50 [4, 9] [nM] | IC50 [5, 10] [nM] | IC50 [1, 11] [nM] | IC50 [2, 12] [nM] | IC50 [3, 13] [nM] | IC50 [4, 14] [nM] | IC50 [5, 15] [nM] | Compound
1 | < 0.3 | < 0.3 | 0.3 | 0.37 | 0.35 | – | – | – | – | – | C#Cc1c(-c2cnc3ccccc3c2)c2c(N)ncnc2n1C12CCC(NC(=O)c3cnc(CNC)cn3)(CC1)C2 [Example 67, N-(4-(4-Amino-6-ethynyl-5-(quinolin-3-yl)-7H-pyrrolo[2,3-d]pyrimidin-7-yl)bicyclo-[2.2.1]heptan-1-yl)-5-((methylamino)methyl)pyrazine-2-carboxamide]
2 | < 0.3 | < 0.3 | 0.4 | < 0.3 | < 0.3 | – | – | – | – | – | C#Cc1c(-c2cnc3ccccc3c2)c2c(N)ncnc2n1C12CCC(NC(=O)c3cnc4cnccn34)(CC1)C2 [Example 65]
3 | < 0.3 | < 0.3 | < 0.3 | < 0.3 | < 0.3 | – | – | – | – | – | C#Cc1c(-c2cnc3ccccc3c2)c2c(N)ncnc2n1C12CCC(NC(=O)c3cnc(CO)cn3)(CC1)C2 [Example 66, N-(4-(4-Amino-6-ethynyl-5-(quinolin-3-yl)-7H-pyrrolo[2,3-d]pyrimidin-7-yl)bicyclo-[2.2.1]heptan-1-yl)-5-(hydroxymethyl)pyrazine-2-carboxamide]

More lines, now with the values behind:

Row | Compound | IC50 [1, 6] [nM] | IC50 [2, 7] [nM] | IC50 [3, 8] [nM] | IC50 [4, 9] [nM] | IC50 [5, 10] [nM] | IC50 [1, 11] [nM] | IC50 [2, 12] [nM] | IC50 [3, 13] [nM] | IC50 [4, 14] [nM] | IC50 [5, 15] [nM]
4 | C#Cc1c(-c2cnc3ccccc3c2)c2c(N)ncnc2n1C12CCC(NC(=O)c3ccnn3-c3ccccc3)(CC1)C2 [Example 26, N-(4-(4-Amino-6-ethynyl-5-(quinolin-3-yl)-7H-pyrrolo[2,3-d]pyrimidin-7-yl)bicyclo-[2.2.1]heptan-1-yl)-1-phenyl-1H-pyrazole-5-carboxamide] | – | – | – | – | – | < 0.3 | 0.62 | 0.71 | 0.84 | 2.1
5 | C#Cc1c(-c2cnc3ccccc3c2)c2c(N)ncnc2n1C12CCC(NC(=O)COC)(CC1)C2 [Example 28, N-(4-(4-Amino-6-ethynyl-5-(quinolin-3-yl)-7H-pyrrolo[2,3-d]pyrimidin-7-yl)bicyclo-[2.2.1]heptan-1-yl)-2-methoxyacetamide] | – | – | – | – | – | < 0.3 | 1.1 | 0.89 | 1.7 | 3.2
6 | C#Cc1c(-c2cnc3ccccc3c2)c2c(N)ncnc2n1C12CCC(NC(=O)c3cnc4ccccn34)(CC1)C2 [Example 64, N-(4-(4-Amino-6-ethynyl-5-(quinolin-3-yl)-7H-pyrrolo[2,3-d]pyrimidin-7-yl)bicyclo-[2.2.1]heptan-1-yl)imidazo[1,2-a]pyridine-3-carboxamide] | < 0.3 | < 0.3 | 0.86 | 0.32 | 0.41 | – | – | – | – | –
7 | C#Cc1c(-c2cnc3ccccc3c2)c2c(N)ncnc2n1C12CCC(N(C)C)(CC1)C2 [Example 11, 7-(4-(Dimethylamino)bicyclo[2.2.1]heptan-1-yl)-6-ethynyl-5-(quinolin-3-yl)-7H -pyrrolo[2,3-d]pyrimidine-4-amine] | – | – | – | – | – | < 0.3 | 0.69 | 1.6 | 2.4 | 11
8 | N-4-(4-Amino-6-ethynyl-5-(quinolin-3-yl)-7H-pyrrolo[2,3-d]pyrimidin-7-yl)bicyclo -[2.2.1]heptane-1-yl)oxazole-5-carboxamide [Example 47] | – | – | – | – | – | < 0.3 | 0.59 | 0.33 | 0.36 | 0.41
9 | C#Cc1c(-c2cnc3ccccc3c2)c2c(N)ncnc2n1C12CCC(N(C)C(=O)c3ncco3)(CC1)C2 [Example 58, N-[4-(4-Amino-6-ethynyl-5-quinolin-3-ylpyrrolo[2,3-d]pyrimidin-7-yl)-1-bicyclo-[2.2.1]heptan-1-yl]-N-methyloxazole-2-carboxamide] | – | – | – | – | – | < 0.3 | 1.5 | 2.2 | 3.4 | 3.9
10 | C#Cc1c(-c2cnc3ccccc3c2)c2c(N)ncnc2n1C12CCC(NC(=O)c3ccnn3C)(CC1)CC2 [Example 6, N-(4-(4-Amino-6-ethynyl-5-(quinoiln-3-yl)-7H-pyrrolo[2,3-d]pyrimidin-7-yl)bicyclo-[2.2.2]octan-1-yl)-1-methyl-1H-pyrazole-5-carboxamide] | – | – | – | – | – | < 0.3 | 0.7 | 2.1 | 4.6 | 5.2
